Assays:
[1] = target: 5'-AMP-activated protein kinase catalytic subunit alpha-2 (Homo sapiens) (UniProt P54646); assay: Inhibition of recombinant full length human AMPKalpha2 assessed as residual activity at 10 uM using AMARAASAAALAR as substrate incubated for 40 mins in presence of [gamma-33ATP] by scintillation counting based radiometry assay relative to control
[2] = target: Casein kinase I isoform epsilon (Homo sapiens) (UniProt P49674); assay: Inhibition of recombinant human CK1epsilon assessed as residual activity at 10 uM using KRRRALS(p)VASLPGL as substrate incubated for 120 mins in presence of [gamma-33ATP] by scintillation counting based radiometry assay relative to control
[3] = target: Mitogen-activated protein kinase kinase kinase 10 (Homo sapiens) (UniProt Q02779); assay: Inhibition of recombinant human MLK2 (1 to 499 residues) assessed as residual activity at 10 uM using myelin basic protein as substrate incubated for 40 mins in presence of [gamma-33ATP by scintillation counting based radiometry assay relative to control
[4] = target: Serine/threonine-protein kinase DCLK2 (Homo sapiens) (UniProt Q8N568); assay: Inhibition of recombinant human DCAMKL2 (376 to end residues) assessed as residual activity at 10 uM using KKLNRTLSFAEPG as substrate at 40 mins in presence of [gamma-33ATP] by scintillation counting based radiometry assay relative to control
[5] = target: Insulin receptor-related protein (Homo sapiens) (UniProt P14616); assay: Inhibition of human IRR (943 to 1266 residues) assessed as residual activity at 10 uM using myelin basic protein as substrate after 40 mins by [gamma-33ATP] radiometric assay relative to control
[6] = target: Proto-oncogene tyrosine-protein kinase Src (Homo sapiens) (UniProt P12931); assay: Inhibition of recombinant human SRC (1 to 530 residues) assessed as residual activity at 10 uM using GGEEEEYFELVKK as substrate incubated for 40 mins in presence of [gamma33P]ATP by scintillation counting based radiometry assay relative to control
[7] = target: Protein kinase C theta type (Homo sapiens) (UniProt Q04759); assay: Inhibition of recombinant full length human PKCtheta assessed as residual activity at 10 uM using histone H1 as substrate incubated for 40 mins in presence of [gamma33P]ATP by scintillation counting based radiometry assay relative to control
[8] = target: Beta-adrenergic receptor kinase 1 (Homo sapiens) (UniProt P25098); assay: Inhibition of recombinant full length human GRK2 assessed as residual activity at 10 uM using casein as substrate at 40 mins in presence of [gamma-33ATP] by scintillation counting based radiometry assay relative to control
[9] = target: Serine/threonine-protein kinase PLK3 (Homo sapiens) (UniProt Q9H4B4); assay: Inhibition of recombinant human Plk3 (19 to 301 residues) assessed as residual activity at 10 uM using casein as substrate incubated for 40 mins in presence of [gamma33P]ATP by scintillation counting based radiometry assay relative to control
[10] = target: Ephrin type-A receptor 5 (Homo sapiens) (UniProt P54756); assay: Inhibition of recombinant human EphA5 (655to 956 residues) assessed as residual activity at 10 uM using poly(Glu, Tyr) 4:1 as substrate at 40 mins in presence of [gamma-33ATP] by scintillation counting based radiometry assay relative to control
[11] = test system: Platelet-derived growth factor receptor alpha (Homo sapiens), P16234 [D842V]; assay: Inhibition of human PDGFRalpha D842V mutant (550 to end residues) assessed as residual activity at 10 uM using poly(Glu, Tyr) 4:1 as substrate measured after 40 mins in presence of [gamma33P]ATP by scintillation counting based radiometry assay relative to control
[12] = test system: CDK18/Cyclin Y (Homo sapiens), Q07002+Q8ND76 [T166M]; assay: Inhibition of recombinant full length human CDK18/cyclinY T166M mutant assessed as residual activity at 10 uM using YRRAAVPPSPSLS as substrate incubated for 40 mins in presence of [gamma-33ATP] by scintillation counting based radiometry assay relative to control; type: protein-complex assay
[13] = target: Epidermal growth factor receptor (Homo sapiens) (UniProt P00533); assay: Inhibition of recombinant human EGFR (696 to end residues) assessed as residual activity at 10 uM using poly(Glu, Tyr) 4:1 as substrate at 40 mins in presence of [gamma-33ATP] by scintillation counting based radiometry assay relative to control
[14] = target: Macrophage-stimulating protein receptor (Homo sapiens) (UniProt Q04912); assay: Inhibition of recombinant human Ron (983 to end residues) assessed as residual activity at 10 uM using GGMEDIYFEFMGGKKK as substrate incubated for 40 mins in presence of [gamma33P]ATP by scintillation counting based radiometry assay relative to control
[15] = target: Receptor tyrosine-protein kinase erbB-4 (Homo sapiens) (UniProt Q15303); assay: Inhibition of recombinant human ERBB4 (706 to 991 residues) assessed as residual activity at 10 uM using poly(Glu, Tyr) 4:1 as substrate at 40 mins in presence of [gamma-33ATP] by scintillation counting based radiometry assay relative to control
[16] = test system: Epidermal growth factor receptor (Homo sapiens), P00533 [L861Q]; assay: Inhibition of recombinant human EGFR L861Q mutant (696 to end residues) assessed as residual activity at 10 uM using poly(Glu, Tyr) 4:1 as substrate at 40 mins in presence of [gamma-33ATP] by scintillation counting based radiometry assay relative to control
[17] = target: Mitogen-activated protein kinase kinase kinase kinase 4 (Homo sapiens) (UniProt O95819); assay: Inhibition of recombinant human MAP4K4 (1 to 328 residues) assessed as residual activity at 10 uM using RLGRDKYKTLRQI as substrate incubated for 40 mins in presence of [gamma-33ATP by scintillation counting based radiometry assay relative to control
[18] = target: Serine/threonine-protein kinase ULK3 (Homo sapiens) (UniProt Q6PHR2); assay: Inhibition of recombinant human full length ULK3 assessed as residual activity at 10 uM using casein as substrate incubated for 40 mins in presence of [gamma33P]ATP by scintillation counting based radiometry assay relative to control
[19] = target: NUAK family SNF1-like kinase 1 (Homo sapiens) (UniProt O60285); assay: Inhibition of recombinant human ARK5 (2 to end residues) assessed as residual activity at 10 uM using KKKVSRSGLYRSPSMPENLNRPR as substrate incubated for 40 mins in presence of [gamma-33ATP] by scintillation counting based radiometry assay relative to control
[20] = test system: Glycogen synthase kinase-3 alpha (Homo sapiens), P49840 [UNDEFINED MUTATION]; assay: Inhibition of human GSK-3alpha S449A mutant (2 to end residues) assessed as residual activity at 10 uM using phospho GS2 peptide as substrate after 40 mins by [gamma-33ATP] radiometric assay
Glycogen synthase kinase-3 alpha (Homo sapiens), P49840 [UNDEFINED MUTATION], sequence (P49840 whole entry, looked up, stated change not applied): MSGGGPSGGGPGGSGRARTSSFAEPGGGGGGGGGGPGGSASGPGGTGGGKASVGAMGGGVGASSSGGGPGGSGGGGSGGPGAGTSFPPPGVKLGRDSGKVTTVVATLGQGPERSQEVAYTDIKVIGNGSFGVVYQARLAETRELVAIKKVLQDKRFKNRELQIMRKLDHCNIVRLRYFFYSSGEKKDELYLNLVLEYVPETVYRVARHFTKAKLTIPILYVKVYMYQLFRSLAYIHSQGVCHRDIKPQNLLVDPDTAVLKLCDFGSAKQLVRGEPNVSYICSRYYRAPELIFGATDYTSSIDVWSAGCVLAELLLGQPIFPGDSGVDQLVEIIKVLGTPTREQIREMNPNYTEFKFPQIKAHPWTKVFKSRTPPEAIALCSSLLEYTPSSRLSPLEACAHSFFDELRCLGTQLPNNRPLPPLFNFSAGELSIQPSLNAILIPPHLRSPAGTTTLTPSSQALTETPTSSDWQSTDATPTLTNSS

Serine/threonine-protein kinase PLK3 (Homo sapiens), sequence (Q9H4B4 whole entry, looked up, the tested form may be a part): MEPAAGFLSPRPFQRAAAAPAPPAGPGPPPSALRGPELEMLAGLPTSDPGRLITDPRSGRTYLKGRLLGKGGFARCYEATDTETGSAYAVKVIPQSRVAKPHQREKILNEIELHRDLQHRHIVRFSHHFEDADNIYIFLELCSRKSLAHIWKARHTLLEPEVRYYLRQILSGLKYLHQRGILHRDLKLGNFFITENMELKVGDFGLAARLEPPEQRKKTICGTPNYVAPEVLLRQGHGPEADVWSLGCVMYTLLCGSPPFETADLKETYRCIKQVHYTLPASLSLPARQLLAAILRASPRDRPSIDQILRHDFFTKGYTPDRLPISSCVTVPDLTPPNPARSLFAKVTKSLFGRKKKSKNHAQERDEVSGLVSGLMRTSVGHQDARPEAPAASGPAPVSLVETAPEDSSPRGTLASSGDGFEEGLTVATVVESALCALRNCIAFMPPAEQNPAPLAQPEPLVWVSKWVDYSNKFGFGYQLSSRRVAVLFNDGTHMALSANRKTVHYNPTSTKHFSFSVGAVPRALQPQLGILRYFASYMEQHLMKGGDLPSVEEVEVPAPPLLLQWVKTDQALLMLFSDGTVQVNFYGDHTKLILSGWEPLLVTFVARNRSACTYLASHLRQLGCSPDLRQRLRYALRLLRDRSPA
5'-AMP-activated protein kinase catalytic subunit alpha-2 (Homo sapiens), sequence (P54646 whole entry, looked up, canonical isoform): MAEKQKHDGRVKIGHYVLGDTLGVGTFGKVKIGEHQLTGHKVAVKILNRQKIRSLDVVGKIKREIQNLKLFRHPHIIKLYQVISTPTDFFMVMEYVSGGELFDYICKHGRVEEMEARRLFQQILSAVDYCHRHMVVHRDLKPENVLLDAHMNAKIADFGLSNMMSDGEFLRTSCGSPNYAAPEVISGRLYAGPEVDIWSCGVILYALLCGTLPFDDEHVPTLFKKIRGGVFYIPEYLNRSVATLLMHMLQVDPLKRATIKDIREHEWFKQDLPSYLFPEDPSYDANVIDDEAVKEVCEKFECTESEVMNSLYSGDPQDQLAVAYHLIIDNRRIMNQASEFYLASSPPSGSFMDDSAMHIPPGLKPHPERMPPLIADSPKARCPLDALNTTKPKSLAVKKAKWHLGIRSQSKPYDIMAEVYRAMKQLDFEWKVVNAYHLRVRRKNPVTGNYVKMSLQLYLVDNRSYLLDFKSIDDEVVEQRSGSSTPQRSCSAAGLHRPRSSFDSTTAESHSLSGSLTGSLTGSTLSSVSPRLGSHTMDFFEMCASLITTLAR
Protein kinase C theta type (Homo sapiens), sequence (Q04759 whole entry, looked up): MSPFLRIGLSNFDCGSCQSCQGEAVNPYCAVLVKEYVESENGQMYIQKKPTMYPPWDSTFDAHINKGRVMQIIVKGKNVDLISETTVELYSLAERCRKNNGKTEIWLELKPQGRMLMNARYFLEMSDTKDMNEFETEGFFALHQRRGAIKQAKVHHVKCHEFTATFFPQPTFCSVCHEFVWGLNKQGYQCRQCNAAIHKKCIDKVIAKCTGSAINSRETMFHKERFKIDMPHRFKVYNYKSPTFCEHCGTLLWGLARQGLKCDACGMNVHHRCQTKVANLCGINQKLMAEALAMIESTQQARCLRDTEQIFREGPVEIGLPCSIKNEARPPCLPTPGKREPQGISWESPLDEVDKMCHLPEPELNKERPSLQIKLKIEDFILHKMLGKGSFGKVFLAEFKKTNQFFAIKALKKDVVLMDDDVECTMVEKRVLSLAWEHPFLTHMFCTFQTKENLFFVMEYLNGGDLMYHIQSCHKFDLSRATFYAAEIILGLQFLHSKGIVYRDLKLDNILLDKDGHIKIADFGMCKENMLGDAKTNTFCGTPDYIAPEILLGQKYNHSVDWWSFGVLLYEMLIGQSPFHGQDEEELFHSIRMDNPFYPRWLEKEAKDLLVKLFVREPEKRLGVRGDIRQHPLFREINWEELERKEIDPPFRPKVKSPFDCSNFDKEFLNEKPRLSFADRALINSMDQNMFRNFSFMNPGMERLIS
Serine/threonine-protein kinase DCLK2 (Homo sapiens), sequence (Q8N568 whole entry, the tested form may be a part): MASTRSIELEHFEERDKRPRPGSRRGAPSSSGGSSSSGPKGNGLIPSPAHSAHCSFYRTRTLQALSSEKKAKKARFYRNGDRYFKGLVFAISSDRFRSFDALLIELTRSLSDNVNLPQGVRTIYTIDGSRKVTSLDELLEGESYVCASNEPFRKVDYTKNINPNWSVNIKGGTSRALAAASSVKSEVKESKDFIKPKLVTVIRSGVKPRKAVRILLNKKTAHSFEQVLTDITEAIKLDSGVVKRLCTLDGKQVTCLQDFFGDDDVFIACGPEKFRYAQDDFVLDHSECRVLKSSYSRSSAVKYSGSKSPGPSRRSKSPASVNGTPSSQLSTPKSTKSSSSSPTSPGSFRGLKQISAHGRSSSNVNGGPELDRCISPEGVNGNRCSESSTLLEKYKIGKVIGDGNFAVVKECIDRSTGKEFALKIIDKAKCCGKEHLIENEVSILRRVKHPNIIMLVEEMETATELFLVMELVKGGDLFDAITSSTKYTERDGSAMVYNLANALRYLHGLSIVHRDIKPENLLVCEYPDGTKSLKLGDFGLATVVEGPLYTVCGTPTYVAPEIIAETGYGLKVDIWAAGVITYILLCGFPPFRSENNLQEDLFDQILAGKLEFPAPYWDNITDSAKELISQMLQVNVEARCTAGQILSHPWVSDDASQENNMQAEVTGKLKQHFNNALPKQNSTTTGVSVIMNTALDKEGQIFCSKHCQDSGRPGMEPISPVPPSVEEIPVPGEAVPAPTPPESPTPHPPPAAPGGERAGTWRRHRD
Beta-adrenergic receptor kinase 1 (Homo sapiens), sequence (P25098 whole entry, the tested form may be a part): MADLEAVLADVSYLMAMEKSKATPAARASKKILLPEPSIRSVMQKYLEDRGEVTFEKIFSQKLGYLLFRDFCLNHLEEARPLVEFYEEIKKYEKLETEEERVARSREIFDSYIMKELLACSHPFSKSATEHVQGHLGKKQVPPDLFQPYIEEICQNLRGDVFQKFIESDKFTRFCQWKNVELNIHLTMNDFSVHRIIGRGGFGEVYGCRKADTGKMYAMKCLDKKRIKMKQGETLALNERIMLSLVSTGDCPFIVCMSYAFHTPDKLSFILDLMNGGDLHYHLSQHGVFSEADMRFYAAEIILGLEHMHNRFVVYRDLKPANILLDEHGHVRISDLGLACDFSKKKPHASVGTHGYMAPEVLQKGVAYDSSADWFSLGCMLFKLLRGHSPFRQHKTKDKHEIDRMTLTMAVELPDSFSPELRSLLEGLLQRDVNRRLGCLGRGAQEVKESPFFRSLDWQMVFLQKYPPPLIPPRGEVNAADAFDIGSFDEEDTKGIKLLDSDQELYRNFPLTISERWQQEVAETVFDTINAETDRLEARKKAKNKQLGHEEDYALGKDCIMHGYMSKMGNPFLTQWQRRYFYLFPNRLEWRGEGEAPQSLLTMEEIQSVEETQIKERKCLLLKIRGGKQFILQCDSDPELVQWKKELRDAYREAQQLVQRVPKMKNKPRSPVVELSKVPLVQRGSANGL
Mitogen-activated protein kinase kinase kinase 10 (Homo sapiens), sequence (Q02779 whole entry, looked up, the tested form may be a part): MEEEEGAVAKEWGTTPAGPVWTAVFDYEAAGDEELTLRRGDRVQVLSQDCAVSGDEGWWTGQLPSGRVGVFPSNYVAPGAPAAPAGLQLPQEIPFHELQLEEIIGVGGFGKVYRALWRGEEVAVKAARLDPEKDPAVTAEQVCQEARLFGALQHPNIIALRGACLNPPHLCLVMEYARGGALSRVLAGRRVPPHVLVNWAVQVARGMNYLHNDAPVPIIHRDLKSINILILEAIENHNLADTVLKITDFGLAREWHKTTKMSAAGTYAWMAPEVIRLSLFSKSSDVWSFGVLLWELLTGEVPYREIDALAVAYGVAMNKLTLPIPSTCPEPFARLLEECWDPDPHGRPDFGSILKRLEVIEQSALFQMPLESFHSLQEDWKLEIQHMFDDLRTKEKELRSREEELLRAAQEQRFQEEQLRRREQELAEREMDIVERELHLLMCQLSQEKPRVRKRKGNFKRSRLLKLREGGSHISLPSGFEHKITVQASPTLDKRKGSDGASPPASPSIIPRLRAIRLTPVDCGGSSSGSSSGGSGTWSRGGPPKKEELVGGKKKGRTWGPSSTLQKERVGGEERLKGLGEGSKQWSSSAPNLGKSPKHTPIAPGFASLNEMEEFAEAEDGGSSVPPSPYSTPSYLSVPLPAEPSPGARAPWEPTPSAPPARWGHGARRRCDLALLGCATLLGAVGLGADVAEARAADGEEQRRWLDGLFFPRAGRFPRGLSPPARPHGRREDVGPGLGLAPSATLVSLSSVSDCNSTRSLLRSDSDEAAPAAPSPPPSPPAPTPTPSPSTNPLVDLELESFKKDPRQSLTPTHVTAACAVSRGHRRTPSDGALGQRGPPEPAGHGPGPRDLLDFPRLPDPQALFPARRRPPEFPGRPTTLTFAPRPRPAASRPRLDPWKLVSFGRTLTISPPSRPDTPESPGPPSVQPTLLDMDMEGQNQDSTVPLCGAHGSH

Compound: C[C@@H](c1ccccc1)n1nnc2cnc3ccc(-c4cnc5[nH]ccc5c4)cc3c21
- Activity [1]: 35%
- Activity [2]: 32%
- Activity [3]: 69%
- Activity [4]: 61%
- Activity [5]: 86%
- Activity [6]: 15%
- Activity [7]: 70%
- Activity [8]: 92%
- Activity [9]: 71%
- Activity [10]: 102%
- Activity [11]: 4%
- Activity [12]: 94%
- Activity [13]: 90%
- Activity [14]: 79%
- Activity [15]: 73%
- Activity [16]: 70%
- Activity [17]: 34%
- Activity [18]: 94%
- Activity [19]: 73%
- Activity [20]: 79%
